Data as given in patent US10358463B2, “Immunomodulators” (BRISTOL-MYERS SQUIBB COMPANY, priority 2016, dated 2019).
pIC50: −log10 of the molar value. Numbered stars: 1 amine (or outer) side, 2 acyl side, 3 side chain; on linkers, the order of the positions; unused ones are H or OH. Bridge positions count the residues as written; N and C are the ends. Square brackets hold non-standard residues; d marks the D form. Peptide text beside a SMILES is read from it. Trp(1-CH2CONHSO2Me) = CS(=O)(=O)NC(=O)Cn1cc(C[C@H](N)C(=O)O)c2ccccc21; X14 = C[C@H](C(=O)O)n1c(=O)n(C[C@H](N[*:1])C(=O)[*:2])c2ccccc21; X1 = O=C(O)Cn1c(C(=O)O)c(C[C@H](N[*:1])C(=O)[*:2])c2ccccc21; X17 = O=C([C@H](Cc1cn(Cc2nnn[nH]2)c2ccccc12)N[*:1])[*:2]; X18 = O=C(O)Cn1c(=O)n(C[C@H](N[*:1])C(=O)[*:2])c2ccccc21; Ala(4-isoquinolinyl) = N[C@@H](Cc1cncc2ccccc12)C(=O)O; X12 = O=C(O)Cc1nn(C[C@H](N[*:1])C(=O)[*:2])c2ccccc12; X13 = O=C(O)Cc1nc(C[C@H](N[*:1])C(=O)[*:2])c2ccccn12; X7 = O=C(O)Cc1nc(C[C@H](N[*:1])C(=O)[*:2])n2ccccc12; X16 = O=C([C@H](Cc1cccc2ccncc12)N[*:1])[*:2]; Hyp = O=C(O)[C@@H]1C[C@@H](O)CN1; NMeNle = CCCC[C@H](NC)C(=O)O; Pen = CC(C)(S)[C@H](N)C(=O)O; Pip = O=C(O)[C@@H]1CCCCN1; NMeA = CN[C@@H](C)C(=O)O; Dab = NCC[C@H](N)C(=O)O; Dap = NC[C@H](N)C(=O)O; Sar = CNCC(=O)O

Target: T1, PD-1-Ig binding to PD-L1-TVMV-His (PD-L1-His) (Homo sapiens, UniProt Q9NZQ7)
T1 construct: hPDL1 (19-239)-TVMV-His; TVMV protease cleavage site (C); made in house; host or cells: HEK293T cells
T1 sequence (Q9NZQ7 with tags, fused parts or gaps): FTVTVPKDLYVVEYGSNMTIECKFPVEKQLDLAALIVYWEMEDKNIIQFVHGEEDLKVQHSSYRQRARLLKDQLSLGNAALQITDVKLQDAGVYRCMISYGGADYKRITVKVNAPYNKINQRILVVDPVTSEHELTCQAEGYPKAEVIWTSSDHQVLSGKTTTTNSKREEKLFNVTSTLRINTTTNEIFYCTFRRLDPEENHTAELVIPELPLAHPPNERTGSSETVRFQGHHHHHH
Test: PD-1/PD-L1 Homogenous Time-Resolved Fluorescence (HTRF) binding assay
Settings: PD-1-Ig (20 nM)/PD-L1-His (10 nM); range class
From the text: The ability of the macrocyclic peptides of the present disclosure to bind to PD-L1 was investigated using a PD-1/PD-L1 Homogenous Time-Resolved Fluorescence (HTRF) binding assay.
Homogenous Time-Resolved Fluorescence (HTRF) Assays of Binding of Soluble PD-1 to Soluble PD-L1. Soluble PD-1 and soluble PD-L1 refers to proteins with carboxyl-end truncations that remove the transmembrane-spanning regions and are fused to heterologous sequences, specifically the Fc portion of the human immunoglobuling G sequence (Ig) or the hexahistidine epitope tag (His). All binding studies were performed in an HTRF assay buffer consisting of dPBS supplemented with 0.1% (w/v) bovine serum albumin and 0.05% (v/v) Tween-20. For the PD-1-Ig/PD-L1-His binding assay, inhibitors were pre-incubated with PD-L1-His (10 nM final) for 15 m in 4 μl of assay buffer, followed by addition of PD-1-Ig (20 nM final) in 1 μl of assay buffer and further incubation for 15 m. PD-L1 fusion proteins from either human, cynomologous macaques, mouse, or other species were used. HTRF detection was achieved using europium crypate-labeled anti-Ig monoclonal antibody (1 nM final) and allophycocyanin (APC) labeled anti-His monoclonal antibody (20 nM final). Antibodies were diluted in HTRF detection buffer and 5 μl was dispensed on top of binding reaction. The reaction was allowed to equilibrate for 30 minutes and signal (665 nm/620 nm ratio) was obtained using an EnVision fluorometer. Additional binding assays were established between PD-1-Ig/PD-L2-His (20 and 5 nM, respectively), CD80-His/PD-L1-Ig (100 and 10 nM, respectively) and CD80-His/CTLA4-Ig (10 and 5 nM, respectively). Binding/competition studies between biotinylated Compound No. 71 and human PD-L1-His were performed as follows. Macrocyclic peptide inhibitors were pre-incubated with PD-L1-His (10 nM final) for 60 minutes in 4 μl of assay buffer followed by addition of biotinylated Compound No. 71 (0.5 nM final) in 1 μl of assay buffer. Binding was allowed to equilibrate for 30 minutes followed by addition of europium crylated labeled Streptavidin (2.5 pM final) and APC-labeled anti-His (20 nM final) in 5 μl of HTRF buffer. The reaction was allowed to equilibrate for 30 m and signal (665 nm/620 nm ratio) was obtained using an EnVision fluorometer.
Recombinant Proteins. Carboxyl-truncated human PD-1 (amino acids 25-167) with a C-terminal human Ig epitope tag [hPD-1 (25-167)-3S-IG] and human PD-L1 (amino acids 18-239) with a C-terminal His epitope tag [hPD-L1(19-239)-tobacco vein mottling virus protease cleavage site (TVMV)-His] were expressed in HEK293T cells and purified sequentially by recombinant Protein A affinity chromatography and size exclusion chromatography. Human PD-L2-His (Sino Biologicals), CD80-His (Sino Biologicals), CTLA4-Ig (RnD Systems) were all obtained through commercial sources.

SMILES | pIC50
CCCC[C@H]1C(=O)N(C)[C@@H](CCCC)C(=O)N[C@@H](CC(C)C)C(=O)N[C@H](C(N)=O)C(C)(C)SCC(=O)N[C@@H](Cc2ccc(O)cc2)C(=O)N2CCCC[C@H]2C(=O)N[C@@H](CC(=O)O)C(=O)N2CCC[C@H]2C(=O)N[C@@H](CN)C(=O)N[C@@H](CCC(=O)O)C(=O)N2C[C@H](O)C[C@H]2C(=O)N[C@@H](Cc2c[nH]c3ccccc23)C(=O)N[C@@H](CCN)C(=O)N[C@@H](Cc2cn(CC(=O)NS(C)(=O)=O)c3ccccc23)C(=O)N1C [Example 1011] ({CH2CO}-Y[Pip]DP[Dap]E[Hyp]W[Dab][Trp(1-CH2CONHSO2Me)][NMeNle][NMeNle]L[Pen]-NH2; thioether N-14) | 8.00 to 9.00
CCCC[C@H]1C(=O)N(C)[C@@H](CCCC)C(=O)N[C@@H](CC(C)C)C(=O)N[C@H](C(=O)NCC(N)=O)CSCC(=O)N[C@@H](Cc2ccc(O)cc2)C(=O)N(C)[C@@H](C)C(=O)N[C@@H](CC(N)=O)C(=O)N2CCC[C@H]2C(=O)N[C@@H](CN)C(=O)N[C@@H](CC(C)C)C(=O)N2C[C@H](O)C[C@H]2C(=O)N[C@@H](Cc2c[nH]c3ccccc23)C(=O)N[C@@H](CCN)C(=O)N[C@@H](Cn2nc(CC(=O)O)c3ccccc32)C(=O)N1C [Example 1012] ({CH2CO}-Y[NMeA]NP[Dap]L[Hyp]W[Dab][X12][NMeNle][NMeNle]LCG-NH2; thioether N-14) | 7.00 to 8.00
CCCC[C@H]1C(=O)N(C)[C@@H](CCCC)C(=O)N[C@@H](CC(C)C)C(=O)N[C@H](C(=O)NCC(N)=O)CSCC(=O)N[C@@H](Cc2ccc(O)cc2)C(=O)N(C)[C@@H](C)C(=O)N[C@@H](CC(N)=O)C(=O)N2CCC[C@H]2C(=O)N[C@@H](CN)C(=O)N[C@@H](CC(C)C)C(=O)N2C[C@H](O)C[C@H]2C(=O)N[C@@H](Cc2c[nH]c3ccccc23)C(=O)N[C@@H](CCN)C(=O)N[C@@H](Cc2c(C(=O)O)n(CC(=O)O)c3ccccc23)C(=O)N1C [Example 1013] ({CH2CO}-Y[NMeA]NP[Dap]L[Hyp]W[Dab][X1][NMeNle][NMeNle]LCG-NH2; thioether N-14) | 7.00 to 8.00
CCCC[C@H]1C(=O)N(C)[C@@H](CCCC)C(=O)N[C@@H](CC(C)C)C(=O)N[C@H](C(=O)NCC(N)=O)CSCC(=O)N[C@@H](Cc2ccc(O)cc2)C(=O)N(C)[C@@H](C)C(=O)N[C@@H](CC(N)=O)C(=O)N2CCC[C@H]2C(=O)N[C@@H](CN)C(=O)N[C@@H](CC(C)C)C(=O)N2C[C@H](O)C[C@H]2C(=O)N[C@@H](Cc2c[nH]c3ccccc23)C(=O)N[C@@H](CCN)C(=O)N[C@@H](Cn2c(=O)n([C@H](C)C(=O)O)c3ccccc32)C(=O)N1C [Example 1014] ({CH2CO}-Y[NMeA]NP[Dap]L[Hyp]W[Dab][X14][NMeNle][NMeNle]LCG-NH2; thioether N-14) | 8.00 to 9.00
CCCC[C@H]1C(=O)N(C)[C@@H](CCCC)C(=O)N[C@@H](CC(C)C)C(=O)N[C@H](C(=O)NCC(N)=O)CSCC(=O)N[C@@H](Cc2ccc(O)cc2)C(=O)N(C)[C@@H](C)C(=O)N[C@@H](CC(N)=O)C(=O)N2CCC[C@H]2C(=O)N[C@@H](CN)C(=O)N[C@@H](CC(C)C)C(=O)N2C[C@H](O)C[C@H]2C(=O)N[C@@H](Cc2c[nH]c3ccccc23)C(=O)N[C@@H](CCN)C(=O)N[C@@H](Cn2c(=O)n(CC(=O)O)c3ccccc32)C(=O)N1C [Example 1015] ({CH2CO}-Y[NMeA]NP[Dap]L[Hyp]W[Dab][X18][NMeNle][NMeNle]LCG-NH2; thioether N-14) | 8.00 to 9.00
CCCC[C@H]1C(=O)N(C)[C@@H](CCCC)C(=O)N[C@@H](CC(C)C)C(=O)N[C@H](C(=O)NCC(N)=O)CSCC(=O)N[C@@H](Cc2ccc(O)cc2)C(=O)N(C)[C@@H](C)C(=O)N[C@@H](CC(N)=O)C(=O)N2CCC[C@H]2C(=O)N[C@@H](CN)C(=O)N[C@@H](CC(C)C)C(=O)N2C[C@H](O)C[C@H]2C(=O)N[C@@H](Cc2c[nH]c3ccccc23)C(=O)N[C@@H](CCN)C(=O)N[C@@H](Cc2nc(CC(=O)O)n3ccccc23)C(=O)N1C [Example 1016] ({CH2CO}-Y[NMeA]NP[Dap]L[Hyp]W[Dab][X13][NMeNle][NMeNle]LCG-NH2; thioether N-14) | 8.00 to 9.00
CCCC[C@H]1C(=O)N(C)[C@@H](CCCC)C(=O)N[C@@H](CC(C)C)C(=O)N[C@H](C(=O)NCC(N)=O)CSCC(=O)N[C@@H](Cc2ccc(O)cc2)C(=O)N(C)[C@@H](C)C(=O)N[C@@H](CC(N)=O)C(=O)N2CCC[C@H]2C(=O)N[C@@H](CN)C(=O)N[C@@H](CC(C)C)C(=O)N2C[C@H](O)C[C@H]2C(=O)N[C@@H](Cc2c[nH]c3ccccc23)C(=O)N[C@@H](CCN)C(=O)N[C@@H](Cc2nc(CC(=O)O)c3ccccn23)C(=O)N1C [Example 1017] ({CH2CO}-Y[NMeA]NP[Dap]L[Hyp]W[Dab][X7][NMeNle][NMeNle]LCG-NH2; thioether N-14) | 8.00 to 9.00
CCCC[C@H]1C(=O)N(C)[C@@H](CCCC)C(=O)N[C@@H](CC(C)C)C(=O)N[C@H](C(N)=O)CSCC(=O)N[C@@H](Cc2ccc(O)cc2)C(=O)N(C)[C@@H](C)C(=O)N[C@@H](CC(N)=O)C(=O)N(C)CC(=O)N[C@@H](CN)C(=O)N[C@@H](CC(C)C)C(=O)N2C[C@H](O)C[C@H]2C(=O)N[C@@H](Cc2c[nH]c3ccccc23)C(=O)N[C@@H](CCN)C(=O)N[C@@H](Cc2c(C(=O)O)n(CC(=O)O)c3ccccc23)C(=O)N1C [Example 1018] ({CH2CO}-Y[NMeA]N[Sar][Dap]L[Hyp]W[Dab][X1][NMeNle][NMeNle]LC-NH2; thioether N-14) | 7.00 to 8.00
CCCC[C@H]1C(=O)N(C)[C@@H](CCCC)C(=O)N[C@@H](CC(C)C)C(=O)N[C@H](C(=O)NCC(N)=O)CSCC(=O)N[C@@H](Cc2ccc(O)cc2)C(=O)N(C)[C@@H](C)C(=O)N[C@@H](CC(=O)O)C(=O)N2CCC[C@H]2C(=O)N[C@@H](Cc2cnc[nH]2)C(=O)N[C@@H](CCCCN)C(=O)N2C[C@H](O)C[C@H]2C(=O)N[C@@H](Cc2c[nH]c3ccccc23)C(=O)N[C@@H](CCCCN)C(=O)N[C@@H](Cc2cn(CC(=O)NS(C)(=O)=O)c3ccccc23)C(=O)N1C [Example 1019] ({CH2CO}-Y[NMeA]DPHK[Hyp]WK[Trp(1-CH2CONHSO2Me)][NMeNle][NMeNle]LCG-NH2; thioether N-14) | 8.00 to 9.00
CCCC[C@H]1C(=O)N(C)[C@@H](CCCC)C(=O)N[C@@H](CC(C)C)C(=O)N[C@H](C(=O)NCC(N)=O)CSCC(=O)N[C@@H](Cc2ccc(O)cc2)C(=O)N(C)[C@@H](C)C(=O)N[C@@H](CC(N)=O)C(=O)N2CCC[C@H]2C(=O)N[C@@H](CN)C(=O)N[C@@H](CC(C)C)C(=O)N2C[C@H](O)C[C@H]2C(=O)N[C@@H](Cc2c[nH]c3ccccc23)C(=O)N[C@@H](CCN)C(=O)N[C@@H](Cc2cn(Cc3nnn[nH]3)c3ccccc23)C(=O)N1C [Example 1020] ({CH2CO}-Y[NMeA]NP[Dap]L[Hyp]W[Dab][X17][NMeNle][NMeNle]LCG-NH2; thioether N-14) | < 6.00
CCCC[C@H]1C(=O)N(C)[C@@H](CCCC)C(=O)N[C@@H](CCCNC(=N)N)C(=O)N[C@H](C(=O)NCC(N)=O)CSCC(=O)N[C@@H](Cc2ccc(O)cc2)C(=O)N(C)[C@@H](C)C(=O)N[C@@H](CC(N)=O)C(=O)N2CCC[C@H]2C(=O)N[C@@H](Cc2cnc[nH]2)C(=O)N[C@@H](CC(C)C)C(=O)N2C[C@H](O)C[C@H]2C(=O)N[C@@H](Cc2c[nH]c3ccccc23)C(=O)N[C@@H](CO)C(=O)N[C@@H](Cc2cncc3ccccc23)C(=O)N1C [Example 1254] ({CH2CO}-Y[NMeA]NPHL[Hyp]WS[Ala(4-isoquinolinyl)][NMeNle][NMeNle]RCG-NH2; thioether N-14) | 7.00 to 8.00
CCCC[C@H]1C(=O)N(C)[C@@H](CCCC)C(=O)N[C@@H](C)C(=O)N[C@H](C(=O)NCC(N)=O)CSCC(=O)N[C@@H](Cc2ccc(O)cc2)C(=O)N(C)[C@@H](C)C(=O)N[C@@H](CC(N)=O)C(=O)N2CCC[C@H]2C(=O)N[C@@H](Cc2cnc[nH]2)C(=O)N[C@@H](CCC(N)=O)C(=O)N2C[C@H](O)C[C@H]2C(=O)N[C@@H](Cc2c[nH]c3ccccc23)C(=O)N[C@@H](CO)C(=O)N[C@@H](Cc2cccc3ccncc23)C(=O)N1C [Example 1271] ({CH2CO}-Y[NMeA]NPHQ[Hyp]WS[X16][NMeNle][NMeNle]ACG-NH2; thioether N-14) | 7.00 to 8.00
